The test deals with NTERA2 human EC cells. The experiment in a line: Two fluorochrome flow cytometric analysis of FGF-4 reporter with SSEA-3 labelling on differentiation. Format: cell-based. Particulars: retinoic acid treated versus undifferentiated NTERA2 cells. The protocol:
Variations of these vectors including pTK-GFP, p5FGF4EN-GFP and p5FGF4EN-Bact-GFP with WES site linking an antibiotic selection marker, for example puromycin or neonmycin resistance, to the expression of GFP were also created (IRESantibiotic selection marker sequences were inserted in the Notl cloning site immediately 3′ to the GFP sequence).
The human embryonal carcinoma (EC) cell line, NTERA2 cl D1, was cultured in DMEM with 10% fetal calf serum as previously described (Andrews et al 1984). […]
Human EC and ES cells were transfected by the same protocol: After incubation at 37° C. overnight the cells were transfected, following the manufacturer's protocol, as follows: 9.5 μg DNA was diluted into 300 μl 0.15 M NaCl and mixed with 21 μl ExGen 500 (MBI Fermentas) and vortexed. […] After incubating for 6-12 hours at 37 C, the medium was removed and the cells fed with fresh medium and fluorescence observed by microscopy under UV epi-illumination.
Cell surface antigen expression of cultured cells was assessed by indirect immunofluorescence detected by flow cytofluorimetry, after harvesting the cultures as single cell suspensions using trypsin-EDTA, as described previously (Andrews et al 1987, Fenderson et al 1987). […] In some experiments, cells that were either positive or negative for SSEA3 and SSEA1 were isolated by fluorescence activated cell sorting (Andrews et al 1987).
In general terms: In flow cytometry, cells or beads pass a laser one at a time.

Structures are written as SMILES.

Results on one compound are retold here after patent US20050201991A1, “Stem cell culture” (priority 2002, published 2005).

`CC1=C(/C=C/C(C)=C/C=C/C(C)=C/C(=O)O)C(C)(C)CCC1` [retenoic acid, all-trans-retinoic acid]: the SSEA-3 expression entry is “reduction”. The “GFP expression from FGF-4 reporter” value (p5FGF4EN-GFPIP reporter) is given as “greatly reduced”.
